Results taken from BindingDB's records for doi:10.1016/0960-894X(96)00012-1 (1996).

Target: T1, Acetylcholinesterase (Bos taurus, UniProt P23795)
T1 sequence (P23795 whole entry): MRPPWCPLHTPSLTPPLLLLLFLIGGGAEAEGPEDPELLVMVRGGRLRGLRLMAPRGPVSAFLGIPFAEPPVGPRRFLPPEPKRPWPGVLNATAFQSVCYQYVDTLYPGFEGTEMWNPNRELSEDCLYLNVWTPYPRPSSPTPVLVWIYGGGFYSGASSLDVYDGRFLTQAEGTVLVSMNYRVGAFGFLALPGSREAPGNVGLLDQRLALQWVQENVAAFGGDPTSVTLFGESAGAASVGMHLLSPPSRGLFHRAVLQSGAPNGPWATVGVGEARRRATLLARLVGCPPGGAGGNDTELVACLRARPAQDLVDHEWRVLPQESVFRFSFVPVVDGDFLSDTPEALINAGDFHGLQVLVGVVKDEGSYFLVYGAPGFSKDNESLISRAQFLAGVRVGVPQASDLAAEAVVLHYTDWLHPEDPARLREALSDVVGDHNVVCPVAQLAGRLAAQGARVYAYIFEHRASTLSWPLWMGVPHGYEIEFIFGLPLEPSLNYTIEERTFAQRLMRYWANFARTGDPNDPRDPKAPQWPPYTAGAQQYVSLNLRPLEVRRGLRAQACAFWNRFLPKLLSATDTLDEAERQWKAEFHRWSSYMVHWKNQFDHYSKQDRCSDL
Assay: Kinetic constant for inhibition of fetal bovine serum acetylcholinesterase
Settings: for kon: read-out: kon (M-1-s-1)

| Structure (SMILES) | kon (M-1-s-1) | kon [M⁻¹ s⁻¹] |
| --- | --- | --- |
| C/C=C1\[C@H]2C=C(C)C[C@@]1(N)c1ccc(=O)[nH]c1C2 [Huperzine A] | 0.05667 M-1-s-1 | 0.057 |
| C/C=C1\C2C=C(C)C[C@]1(N)c1ccc(=O)[nH]c1C2(C)C [(R)-1-Amino-13-ethylidene-8,8,11-trimethyl-6-aza-tricyclo[7.3.1.0*2,7*]trideca-2(7),3,10-trien-5-one] | – | 0.013 |
